According to PubChem BioAssay (NCI):
Several values for one entry are separate records, joined by “and”; a condition that tells them apart may be missing. Equal entries are not always repeated.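 These data come from cells grown in 96-well plates and exposed to compound for 48 hours at five concentrations. GI50 marks 50% less growth. TGI is the concentration that stops growth completely.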

How the values were obtained:
Experiment in all cases: inhibition of tumour cell growth, NCI panel, 48 h
[1] = tested on: HCT-116 colon
[2] = tested on: MCF7 breast
[3] = tested on: MDA-MB-435
[4] = tested on: MOLT-4 leukemia
[5] = tested on: NCI-H226 lung
[6] = tested on: NCI-H522 lung
[7] = tested on: OVCAR-3 ovarian
[8] = tested on: SF-295 CNS
[9] = tested on: UACC-257 melanoma
[10] = tested on: UO-31 renal

Compound | GI50 [1] | TGI [1] | GI50 [2] | TGI [2] | GI50 [3] | TGI [3] | GI50 [4] | TGI [4] | GI50 [5] | TGI [5] | GI50 [6] | TGI [6] | GI50 [7] | TGI [7] | GI50 [8] | TGI [8] | GI50 [9] | TGI [9] | GI50 [10] | TGI [10]
O=C(Nc1nc(-c2ccccc2)cs1)c1cc(O)c(O)c(O)c1 | 2.97 µM | 16.5 µM | 4.73 µM | > 100 µM | 5.59 µM | 56.2 µM | 1.57 µM | 19.4 µM | 8.08 µM | 54.8 µM | 0.337 µM | 1.23 µM | 3.39 µM | 13.6 µM | 6.97 µM | 55.1 µM | 7.84 µM | 52.1 µM | 0.605 µM | 19.4 µM
CCCC(CCC)Oc1ccc(CCCC2=C(O)c3ccccc3C(=O)C2=O)cc1 | 2.17 µM | 13.6 µM | 4.32 µM | 15.2 µM | 4.72 µM | 17.6 µM | 3.25 µM | 11.5 µM | 4.24 µM | 20.8 µM | 5.75 µM | 22.2 µM | 4.33 µM | 15 µM | 2.1 µM | 10.4 µM | 7.07 µM | 43.1 µM | 2.69 µM | 13.8 µM
Nc1cc(N)cc(Cc2ccccc2)c1 | – | > 100 µM | – | > 100 µM | – | > 100 µM | – | > 100 µM | – | > 100 µM | – | > 100 µM | – | > 100 µM | – | > 100 µM | – | > 100 µM | – | > 100 µM
OCC#CCCCCOCC#Cc1ccccc1C#CCOCCCCC#CCO | 22.5 µM | > 100 µM | 47.5 µM | > 100 µM | 20 µM | 45.9 µM | 14.8 µM | > 100 µM | 23.7 µM | 59 µM | 71.3 µM | > 100 µM | 18.7 µM | 45.7 µM | 19.2 µM | 56.5 µM | 37.3 µM | > 100 µM | 55.5 µM | > 100 µM
C[C@@H]1CC[C@@H]2[C@@H]1[C@H](OC(=O)c1ccc3ccccc3c1)[C@]1(C3CCCCC3)C[C@@H](OC(=O)CO)[C@@]2(C)O1 | 6.46 µM | 19.6 µM | 3.44 µM | 16.5 µM | 14.1 µM | 29.4 µM | 5.16 µM | 21.3 µM | 11.6 µM | 26.2 µM | 10.3 µM | 24.1 µM | 12.9 µM | 27.1 µM | 11.6 µM | 25.3 µM | 12.9 µM | 26.3 µM | – | –
CC(=O)[O][Hg][CH2]C1(C)COC(C)([CH2][Hg][O]C(C)=O)CO1 (stereo unspecified) | 1.22 µM | 6.58 µM | 0.646 µM | 2.32 µM | 2.72 µM | 7.18 µM | 0.747 µM | 3.14 µM | 6.16 µM | 14.2 µM | 12.1 µM | 33 µM | – | 0.0232 µM | 3.62 µM | 8.44 µM | 4.51 µM | 10.5 µM | 5.07 µM | 9.83 µM
Cn1ccc2c3c(=O)cc[nH]c3ccc21 | > 100 µM | > 100 µM | > 100 µM | > 100 µM | > 100 µM | > 100 µM | > 100 µM | > 100 µM | > 100 µM | > 100 µM | > 100 µM | > 100 µM | > 100 µM | > 100 µM | > 100 µM | > 100 µM | > 100 µM | > 100 µM | > 100 µM | > 100 µM
CC1=C/C(O)CC(=O)Cc2nc(co2)C(=O)N2CCC=C2C(=O)OC(C(C)C)C(C)/C=C\C(=O)NC/C=C\1 (stereo unspecified) | 3.63 µM | 14.8 µM and 28.1 µM | 5.89 µM | 25.1 µM and 41.2 µM | 20.3 µM | > 94.2 µM and 80.4 µM | 8.54 µM | > 32.6 µM and 53.5 µM | > 46.3 µM | > 100 µM | 15.2 µM | > 65.6 µM and 11.8 µM | 13.6 µM | 37.6 µM and 93.6 µM | 22.3 µM | > 100 µM | 12.6 µM | 35.5 µM and > 100 µM | 25.7 µM | 91.7 µM
COc1ccc(C2SCC(=O)N2NC(=O)C(O)c2ccccc2)cc1 (stereo unspecified) | > 100 µM | > 100 µM | > 100 µM | > 100 µM | > 100 µM | > 100 µM | > 100 µM | > 100 µM | > 100 µM | > 100 µM | > 100 µM | > 100 µM | > 100 µM | > 100 µM | > 100 µM | > 100 µM | > 100 µM | > 100 µM | > 100 µM | > 100 µM
C/C(=C1/N=C(c2ccccc2)OC1=O)c1ccccc1 | – | > 100 µM | – | > 100 µM | – | > 100 µM | – | > 100 µM | – | > 100 µM | – | > 100 µM | – | > 100 µM | – | > 100 µM | – | > 100 µM | – | –
